Experimental data reported in ChEMBL document CHEMBL5120875, “Discovery of diarylheptanoids that activate α7 nAchR-JAK2-STAT3 signaling in macrophages with anti-inflammatory activity in vitro and in vivo” (Bioorg Med Chem, 2022).
Activity calls are given as the source filed them. The rule behind the calls is not given here.

Legend:
RAW264.7 [1] = experiment: Cytotoxicity against mouse RAW264.7 cells assessed as effect on cell viability at 5 uM incubated for 24 hrs by alamar blue reagent based fluorescence assay; format: toxicity; conditions: raw264.7, 24 h
RAW264.7 [2] = experiment: Inhibition of LPS-induced NO production in mouse RAW264.7 cells at 5 uM preincubated with compound for 2 hrs followed by LPS stimulation for 24 hrs by Griess reagent based assay relative to control; format: functional; conditions: time 26 hrs
RAW264.7 [3] = experiment: Inhibition of LPS-induced NO production in mouse RAW264.7 cells preincubated with compound for 2 hrs followed by LPS stimulation for 24 hrs by Griess reagent based assay; format: functional, cell-based
RAW264.7 [4] = experiment: Antiinflammatory activity in LPS-induced mouse RAW264.7 cells assessed as enhancement of JAK2 phosphorylation at 20 uM pretreated with compound for 2 hrs followed by LPS-stimulation and measured after 30 mins by Western blot analysis; format: functional, cell-based; conditions: time 2.5 hrs
RAW264.7 [5] = experiment: Antiinflammatory activity in LPS-induced mouse RAW264.7 cells assessed as enhancement of JAK2 phosphorylation at […] pretreated with compound for 2 hrs followed by LPS-stimulation and measured after 30 mins by Western blot analysis; format: functional, cell-based; conditions: time 2.5 hrs
RAW264.7 [6] = experiment: Antiinflammatory activity in LPS-induced mouse RAW264.7 cells assessed as enhancement of STAT3 phosphorylation at 20 uM pretreated with compound for 2 hrs followed by LPS-stimulation and measured after 30 mins by Western blot analysis; format: functional, cell-based; conditions: time 2.5 hrs
RAW264.7 [7] = experiment: Antiinflammatory activity in LPS-induced mouse RAW264.7 cells assessed as enhancement of STAT3 phosphorylation at […] pretreated with compound for 2 hrs followed by LPS-stimulation and measured after 30 mins by Western blot analysis; format: functional, cell-based; conditions: time 2.5 hrs

## COc1ccc(CCCCC(=O)CCc2cccc(O)c2)c(OC)c1
RAW264.7 [1]
  Activity: Non-Toxic
RAW264.7 [2]
  inhibition at 5 µM: 2.74%

## O/N=C(/CC/C=C/c1ccccc1)CCc1ccccc1
RAW264.7 [1]
  Activity: Non-Toxic
RAW264.7 [2]
  inhibition at 5 µM: 39.4%

## COc1ccc(CCCCC(O)CCc2cccc(O)c2)c(OC)c1 (stereo not drawn)
RAW264.7 [1]
  Activity: Non-Toxic
RAW264.7 [2]
  inhibition at 5 µM: -14.5%

## OC(CCc1ccccc1)CC(O)CCc1ccccc1 (stereo not drawn)
RAW264.7 [1]
  Activity: Non-Toxic
RAW264.7 [2]
  inhibition at 5 µM: 23.5%

## COc1cc(CCC(=O)CC/C=C/c2ccccc2)ccc1O
RAW264.7 [1]
  Activity: Non-Toxic
RAW264.7 [2]
  inhibition at 5 µM: 52.2%

## Oc1ccc(CCC(O)CC(O)CCc2ccccc2)cc1 (stereo not drawn)
RAW264.7 [1]
  Activity: Non-Toxic
RAW264.7 [2]
  inhibition at 5 µM: 20.5%

## O=C(CC/C=C/c1ccccc1)CCc1ccccc1
RAW264.7 [1]
  Activity: Non-Toxic
RAW264.7 [2]
  inhibition at 5 µM: -8.52%

## O=C(/C=C/C=C/c1ccccc1)CCc1ccc(O)cc1
RAW264.7 [1]
  Activity: Non-Toxic
RAW264.7 [2]
  inhibition at 5 µM: 60.4%

## CC(=O)Oc1ccc(CCC(=O)CCCCc2ccccc2)cc1OC(C)=O
RAW264.7 [1]
  Activity: Non-Toxic
RAW264.7 [2]
  inhibition at 5 µM: 128%
RAW264.7 [3]
  IC50: 370 nM

## COc1ccc(/C=C/C(=O)/C=C/C=C/c2cccc(O)c2)cc1
RAW264.7 [1]
  Activity: Non-Toxic
RAW264.7 [2]
  inhibition at 5 µM: 85.8%
RAW264.7 [3]
  IC50: 1230 nM

## O=C(CCCCc1ccccc1)CCc1ccc(O)cc1
RAW264.7 [1]
  Activity: Non-Toxic
RAW264.7 [2]
  inhibition at 5 µM: 68.3%

## COc1cc(/C=C/C(=O)CC(=O)/C=C/c2ccc(O)c(OC)c2)ccc1O [CURCUMIN]
RAW264.7 [1]
  Activity: Non-Toxic
RAW264.7 [2]
  inhibition at 5 µM: 74%
RAW264.7 [3]
  IC50: 1890 nM

## Oc1ccc(CC[C@@H](O)CC/C=C/c2ccccc2)cc1O
RAW264.7 [1]
  Activity: Non-Toxic
RAW264.7 [2]
  inhibition at 5 µM: 34.7%

## COc1ccc(OC)c(/C=C/C=C/C(=O)/C=C/c2ccc(OC)c(O)c2)c1
RAW264.7 [1]
  Activity: Non-Toxic
RAW264.7 [2]
  inhibition at 5 µM: 101%
RAW264.7 [3]
  IC50: 610 nM

## O=C(CCc1ccccc1)C[C@@H](O)/C=C/c1ccccc1
RAW264.7 [1]
  Activity: Non-Toxic
RAW264.7 [2]
  inhibition at 5 µM: 11%

## CC(=O)Oc1ccc(CCC(=O)CC/C=C/c2ccccc2)cc1
RAW264.7 [1]
  Activity: Non-Toxic
RAW264.7 [2]
  inhibition at 5 µM: 22.2%

## CC(=O)Oc1ccc(CCC(=O)CCCCc2ccccc2)cc1
RAW264.7 [1]
  Activity: Non-Toxic
RAW264.7 [2]
  inhibition at 5 µM: 45.2%

## O=C(/C=C/C=C/c1ccccc1)CCc1ccccc1
RAW264.7 [1]
  Activity: Non-Toxic
RAW264.7 [2]
  inhibition at 5 µM: 52.8%

## COc1cccc(/C=C/C(=O)/C=C/C=C/c2cccc(O)c2)c1
RAW264.7 [1]
  Activity: Non-Toxic
RAW264.7 [2]
  inhibition at 5 µM: 84.3%
RAW264.7 [3]
  IC50: 810 nM

## O=C(/C=C/C=C/c1cccc(O)c1)/C=C/c1cccc(O)c1
RAW264.7 [1]
  Activity: Non-Toxic
RAW264.7 [2]
  inhibition at 5 µM: 95.9%
RAW264.7 [3]
  IC50: 580 nM

## COc1ccc(CCC(=O)CCCCc2cccc(O)c2)cc1
RAW264.7 [1]
  Activity: Non-Toxic
RAW264.7 [2]
  inhibition at 5 µM: 21.4%

## CC(=O)Oc1ccc(CC[C@@H](O)CC/C=C/c2ccccc2)cc1OC(C)=O
RAW264.7 [1]
  Activity: Non-Toxic
RAW264.7 [2]
  inhibition at 5 µM: 121%
RAW264.7 [3]
  IC50: 1610 nM

## COc1ccc(/C=C2\CCCN=C2c2cccnc2)c(OC)c1
RAW264.7 [4]
  Activity: Active
RAW264.7 [5]
  Activity: Active
RAW264.7 [6]
  Activity: Active
RAW264.7 [7]
  Activity: Active

## COc1cccc(/C=C/C=C/C(=O)/C=C/c2cccc(O)c2)c1
RAW264.7 [1]
  Activity: Non-Toxic
RAW264.7 [2]
  inhibition at 5 µM: 92.3%
RAW264.7 [3]
  IC50: 410 nM

## COc1ccc(OC)c(CCCCC(=O)CCc2ccc(OC)c(O)c2)c1
RAW264.7 [1]
  Activity: Non-Toxic
RAW264.7 [2]
  inhibition at 5 µM: 39.4%

## COc1ccc(OC)c(CCCCC(O)CCc2ccc(OC)c(O)c2)c1 (stereo not drawn)
RAW264.7 [1]
  Activity: Non-Toxic
RAW264.7 [2]
  inhibition at 5 µM: 36.2%

## COc1cc(CC[C@@H](O)CC/C=C/c2ccccc2)ccc1O
RAW264.7 [1]
  Activity: Non-Toxic
RAW264.7 [2]
  inhibition at 5 µM: 47.9%

## O[C@@H](CC/C=C/c1ccccc1)CCc1ccc(OCc2ccccc2)cc1
RAW264.7 [1]
  Activity: Non-Toxic
RAW264.7 [2]
  inhibition at 5 µM: -15.7%

## O[C@@H](CC/C=C/c1ccccc1)CCc1ccccc1
RAW264.7 [1]
  Activity: Non-Toxic
RAW264.7 [2]
  inhibition at 5 µM: -18.3%

## COc1cc(CCC(O)/C=C/C=C/c2ccccc2)ccc1O (stereo not drawn)
RAW264.7 [1]
  Activity: Non-Toxic
RAW264.7 [2]
  inhibition at 5 µM: 35.3%

## O[C@@H](CCCCc1ccccc1)CCc1ccccc1
RAW264.7 [1]
  Activity: Non-Toxic
RAW264.7 [2]
  inhibition at 5 µM: 40.1%

## COc1ccc(CCCCC(=O)CCc2ccc(OC)c(O)c2)c(OC)c1
RAW264.7 [1]
  Activity: Non-Toxic
RAW264.7 [2]
  inhibition at 5 µM: 16.6%

## CC(=O)OCC[N+](C)(C)C
RAW264.7 [4]
  Activity: Active
RAW264.7 [5]
  Activity: Active
RAW264.7 [6]
  Activity: Active
RAW264.7 [7]
  Activity: Active

## COc1ccc(CCC(=O)CCCCc2cccc(O)c2)cc1O
RAW264.7 [1]
  Activity: Non-Toxic
RAW264.7 [2]
  inhibition at 5 µM: 8.39%

## COc1ccc(CCC(/C=C/C=C/c2ccccc2)OC)cc1O (stereo not drawn)
RAW264.7 [1]
  Activity: Non-Toxic
RAW264.7 [2]
  inhibition at 5 µM: 71.1%

## Oc1ccc(CC[C@@H](O)CCCCc2ccccc2)cc1O
RAW264.7 [1]
  Activity: Non-Toxic
RAW264.7 [2]
  inhibition at 5 µM: 54%

## C(=C\C=C\c1ccccc1)/C=C/Cc1ccccc1
RAW264.7 [1]
  Activity: Non-Toxic
RAW264.7 [2]
  inhibition at 5 µM: 124%
RAW264.7 [3]
  IC50: 840 nM

## Oc1ccc(CCCC[C@H](O)CCc2ccccc2)cc1
RAW264.7 [1]
  Activity: Non-Toxic
RAW264.7 [2]
  inhibition at 5 µM: 23.9%

## COc1ccc(CCCCC(O)CCc2ccc(OC)c(O)c2)c(OC)c1 (stereo not drawn)
RAW264.7 [1]
  Activity: Non-Toxic
RAW264.7 [2]
  inhibition at 5 µM: -2.9%

## O=C(CCCCc1ccccc1)CCc1ccccc1
RAW264.7 [1]
  Activity: Non-Toxic
RAW264.7 [2]
  inhibition at 5 µM: 38.9%

## COc1ccc(CCC(=O)CC/C=C/c2ccccc2)cc1
RAW264.7 [1]
  Activity: Non-Toxic
RAW264.7 [2]
  inhibition at 5 µM: -17.2%

## O=C(CC/C=C/c1ccccc1)CCc1ccc(O)cc1
RAW264.7 [1]
  Activity: Non-Toxic
RAW264.7 [2]
  inhibition at 5 µM: 46.1%

## Oc1ccc(CC[C@@H](O)CC/C=C/c2ccccc2)cc1
RAW264.7 [1]
  Activity: Non-Toxic
RAW264.7 [2]
  inhibition at 5 µM: 20.4%

## Oc1ccc(CCC(O)/C=C/C=C/c2ccccc2)cc1O (single isomer, unassigned)
RAW264.7 [1]
  Activity: Non-Toxic
RAW264.7 [2]
  inhibition at 5 µM: 12.3%

## COC(/C=C/C=C/c1ccccc1)CCc1ccc(O)cc1 (stereo not drawn)
RAW264.7 [1]
  Activity: Non-Toxic
RAW264.7 [2]
  inhibition at 5 µM: 66.3%

## O=C(CCc1ccccc1)C[C@@H](O)CCc1ccccc1
RAW264.7 [1]
  Activity: Non-Toxic
RAW264.7 [2]
  inhibition at 5 µM: 14.7%

## COc1ccc(/C=C/C=C/C(=O)/C=C/c2cccc(O)c2)c(OC)c1
RAW264.7 [1]
  Activity: Non-Toxic
RAW264.7 [2]
  inhibition at 5 µM: 82.3%
RAW264.7 [3]
  IC50: 970 nM

## O[C@@H](/C=C/C=C/c1ccccc1)CCc1ccccc1
RAW264.7 [1]
  Activity: Non-Toxic
RAW264.7 [2]
  inhibition at 5 µM: 4.61%

## CC(=O)Oc1ccc(CC[C@@H](O)CCCCc2ccccc2)cc1OC(C)=O
RAW264.7 [1]
  Activity: Non-Toxic
RAW264.7 [2]
  inhibition at 5 µM: 99.2%
RAW264.7 [3]
  IC50: 330 nM
